Marks after values point to notes of the source that are not given here.
Key:
Format in all cases: cell-based
DOR = DOR (Homo sapiens, UniProt P41143); experiment: DOR calcium mobilization agonist/antagonist screen (CHO-RD-HGA16 cells); set-up: host or cells: CHO-RD-HGA16; settings: single concentration; for Emax: CHO-RD-HGA16, agonist screen, control agonist DPDPE
Procedure: (§1) Compounds were evaluated for kappa (KOR), mu (MOR), and delta (DOR) opioid receptor agonist and antagonist activity in three individual cell lines overexpressing Gαq16 (CHO-RD-HGA16, Molecular Devices) and the human kappa, mu, and delta opioid receptors, respectively. The day before the assay, cells were plated into 96-well black-walled assay plates at 30,000 cells/well in Ham's F12 supplemented with 10% fetal bovine serum, and 100 units of penicillin and streptomycin. The cells were incubated overnight at 37° C., 5% CO2. Prior to the assay, Calcium 5 dye (Molecular Devices) was reconstituted according to the manufacturer's instructions. The reconstituted dye was diluted 1:40 in pre-warmed (37° C.) assay buffer (1×HBSS, 20 mM HEPES, 2.5 mM probenecid, pH 7.4 at 37° C.). Growth medium was removed and the cells were gently washed with 100 μL of pre-warmed (37° C.) assay buffer. The cells were incubated for 45 minutes at 37° C., 5% CO2 in 200 μL of the diluted Calcium 5 dye. For the agonist screen, a single concentration of each test compound and receptor-specific controls (U69,593, DAMGO, and DPDPE for KOR, MOR, and DOR, respectively) were prepared at 10× the desired final concentration in 1% DMSO/assay buffer, aliquoted into a 96-well polystyrene plate, and warmed to 37° C. After the dye-loading incubation period, pretreatment solution was added to each well (25 μL of 9% DMSO/assay buffer) and, after 15 min, the plate was read with a FlexStation II (Molecular Devices). Calcium-mediated changes in fluorescence were monitored every 1.52 seconds over a 60 second time period, with the FlexStation II adding 50 μL of test compounds at the 19 second time point (excitation at 485 nm, detection at 525 nm). Peak kinetic reduction (SoftMax, Molecular Devices) relative fluorescence units (RFU) were used to calculate % control agonist Emax with the equation % Emax=(test compound RFU/control agonist RFU)×100. For the antagonist screens, the same procedure was followed except that the pretreatment solution consisted of the test compounds (prepared at […] the desired final concentration in 9% DMSO/assay buffer) and the FlexStation added the EC60 concentration (prepared at 10× the desired final concentration in 1% DMSO/assay buffer) of each respective control agonist. Peak RFU were used to calculate % control EC60 inhibition with the equation % inhibition=((EC60 RFU−test compound RFU)/EC60 RFU)×100. When IC50 determinations were made, the same antagonist screen procedure was followed except that cells were pretreated with 8-pt concentration-response curves of the test compounds. Peak RFU were plotted against the log of compound concentration using non-linear regression analysis to generate IC50 values (GraphPad Prism). Each test sample was analyzed in duplicate in two independent experiments.

ACKR3 [1] = molecular target: T1, ACKR3 (Homo sapiens, UniProt P25106); experiment: NanoBiT-based β-arrestin-2 recruitment assay, human ACKR3 in U87 cells; set-up: expressed in transfected cells; host or cells: U87; settings: for agonist efficacy at hACKR3 compared to CXCL-12: NanoBiT β-arrestin recruitment, reference ligand CXCL-12; for EC50: NanoBiT, U87 cells, FIG. 1 section A, read-out: EC50, β-arrestin-2 recruitment to hACKR3
Procedure: Concentration-response studies were performed with molecules WW-1 (conolidine) and WW-12 on the human and mouse ACKR3 receptors in U87 cells using a NanoBiT-based β-arrestin-2 recruitment assay […] to evaluate their efficacy and potency towards the two receptors.
(§2) Ligand-induced β-arrestin recruitment to chemokine and opioid receptors was monitored by NanoLuc complementation assay (NanoBiT, Promega). In brief, 1.2×10^6 U87 cells were plated in 10-cm culture dishes and 48 hours later co-transfected with pNBe vectors encoding GPCRs (ACKR3, MOR, DOR, KOR, or NOP) C-terminally tagged with SmBiT and human β-arrestin-1 (arrestin-2) or β-arrestin-2 (arrestin-3) N-terminally fused to LgBiT. 48 hours post-transfection cells were harvested, incubated 25 minutes at 37° C. with Nano-Glo Live Cell substrate diluted 200-fold and distributed into white 96-well plates (5×10^4 cells per well). Ligand-induced, β-arrestin to GPCRs was evaluated with a Mithras LB940 luminometer (Berthold Technologies, running on MicroWin 2010 5.19 software (Mikrotek Laborsysteme)) for 20 minutes.
For concentration-response curves (FIG. 2), the signal recorded with a saturating concentration of full agonist for each receptor was set as 100%. To evaluate the antagonist properties of ligands, full agonists of each receptor (50 nM BAM22 for MOR, 50 nM dynorphin A for KOR, 70 nM met-enkephalin for DOR, 70 nM nociceptin for NOP and 4 nM CXCL12 for ACKR3) were added after the 20-minute incubation with the ligands.
Target sequence in this assay (P25106 whole entry): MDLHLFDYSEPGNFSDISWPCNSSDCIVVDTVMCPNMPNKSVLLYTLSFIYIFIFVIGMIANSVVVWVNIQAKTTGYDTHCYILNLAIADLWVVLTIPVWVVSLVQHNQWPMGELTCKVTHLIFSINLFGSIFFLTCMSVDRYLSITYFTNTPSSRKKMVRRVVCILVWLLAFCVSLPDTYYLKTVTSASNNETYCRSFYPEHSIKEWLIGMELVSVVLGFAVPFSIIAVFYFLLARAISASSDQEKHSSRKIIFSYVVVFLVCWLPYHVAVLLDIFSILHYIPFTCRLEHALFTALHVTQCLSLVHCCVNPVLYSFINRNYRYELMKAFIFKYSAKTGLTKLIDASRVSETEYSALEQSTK
Target sequence in this assay (P32121 whole entry partner): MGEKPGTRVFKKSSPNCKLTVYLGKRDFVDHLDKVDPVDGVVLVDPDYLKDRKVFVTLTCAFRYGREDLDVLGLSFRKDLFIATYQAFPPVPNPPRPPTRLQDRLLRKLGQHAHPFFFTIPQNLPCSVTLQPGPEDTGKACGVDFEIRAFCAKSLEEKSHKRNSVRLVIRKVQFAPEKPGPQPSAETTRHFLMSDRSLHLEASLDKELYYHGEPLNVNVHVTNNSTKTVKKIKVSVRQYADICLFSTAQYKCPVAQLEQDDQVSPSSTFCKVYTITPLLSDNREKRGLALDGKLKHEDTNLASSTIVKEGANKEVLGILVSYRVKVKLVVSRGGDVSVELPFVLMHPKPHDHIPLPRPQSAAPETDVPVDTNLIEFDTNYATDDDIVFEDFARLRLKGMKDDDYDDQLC

KOR = KOR (Homo sapiens, UniProt P41145); experiment: KOR calcium mobilization agonist/antagonist screen (CHO-RD-HGA16 cells); set-up: host or cells: CHO-RD-HGA16; settings: single concentration; for Emax: CHO-RD-HGA16, agonist screen, control agonist U69,593; for KOR Calcium % U69, 593 Inhibition: antagonist screen, vs EC60 of U69,593
Procedure: as §1

ACKR3 [2] = molecular target: T1, ACKR3; experiment: Ligand-induced ACKR3 delivery to early endosomes (NanoBRET, U87 cells); set-up: expressed in transfected cells; host or cells: U87-ACKR3 (ACKR3-negative U87 as control); settings: ACKR3-Nanoluciferase / FYVE-mNeonGreen, FIG. 6 section B
Procedure: Ligand-induced receptor-arrestin delivery to early endosomes was monitored by NanoBRET. In brief, 1.2×10^6 U87 cells were seeded in 10-cm dishes and co-transfected with plasmids encoding ACKR3, C-terminally tagged with Nanoluciferase and FYVE domain of endofin interacting with phosphatidylinositol 3-phosphate (PI3P) in early endosomes46,47, N-terminally tagged with mNeonGreen. 48h post-transfection, cells were distributed into black 96-well plates (1×10^5 cells per well) and treated with full-length or processed chemokines. After 2-hour incubation at 37° C., coelenterazine H (10 μM) was added and donor emission (460 nm) and acceptor emission (535 nm) were immediately measured on a GloMax plate reader (Promega).
Target sequence in this assay (P25106 whole entry): as the sequence (P25106 whole entry) above

MOR = MOR (Homo sapiens, UniProt P35372); experiment: NanoBiT-based β-arrestin-2 recruitment assay, MOR; set-up: expressed in transfected cells; host or cells: U87; settings: concentration range 0.15 nM to 80 μM; reference BAM22
Procedure: The ability of the different molecules to activate the four opioid receptors MOR, DOR, KOR and NOP that are known to mediate in vivo analgesic effects was tested using the NanoBiT-based β-arrestin-2 recruitment assay in a concentration range of 0.15 nM to 80 μM. For each of these receptors a reference ligand corresponding to an endogenous opioid peptide i.e. Met-enkephalin, BAM22, Dynorphin A and Nociceptin, respectively was included.
as §2
For concentration-response curves (FIG. 2), the signal recorded with a saturating concentration of full agonist for each receptor was set as 100%. […]

Sequence of KOR (P41145 whole entry): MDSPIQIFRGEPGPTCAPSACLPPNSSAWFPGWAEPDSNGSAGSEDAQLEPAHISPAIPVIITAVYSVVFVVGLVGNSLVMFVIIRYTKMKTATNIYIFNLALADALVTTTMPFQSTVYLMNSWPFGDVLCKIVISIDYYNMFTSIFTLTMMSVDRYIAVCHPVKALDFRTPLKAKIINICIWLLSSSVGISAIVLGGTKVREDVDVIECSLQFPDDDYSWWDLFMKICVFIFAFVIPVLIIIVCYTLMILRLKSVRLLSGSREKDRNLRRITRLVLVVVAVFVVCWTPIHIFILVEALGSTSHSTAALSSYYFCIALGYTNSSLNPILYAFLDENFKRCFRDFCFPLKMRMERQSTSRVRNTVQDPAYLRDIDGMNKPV
Sequence of DOR (P41143 whole entry): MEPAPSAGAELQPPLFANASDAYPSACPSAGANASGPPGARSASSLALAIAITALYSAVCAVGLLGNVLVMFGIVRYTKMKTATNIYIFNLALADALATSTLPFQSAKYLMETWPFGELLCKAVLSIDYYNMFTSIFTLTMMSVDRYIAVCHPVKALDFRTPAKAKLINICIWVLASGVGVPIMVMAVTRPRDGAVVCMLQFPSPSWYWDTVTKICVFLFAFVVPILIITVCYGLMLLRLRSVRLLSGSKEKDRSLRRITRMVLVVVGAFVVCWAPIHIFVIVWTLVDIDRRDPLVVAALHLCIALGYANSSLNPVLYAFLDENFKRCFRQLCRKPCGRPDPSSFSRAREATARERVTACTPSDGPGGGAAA
Sequence of MOR (P35372 whole entry): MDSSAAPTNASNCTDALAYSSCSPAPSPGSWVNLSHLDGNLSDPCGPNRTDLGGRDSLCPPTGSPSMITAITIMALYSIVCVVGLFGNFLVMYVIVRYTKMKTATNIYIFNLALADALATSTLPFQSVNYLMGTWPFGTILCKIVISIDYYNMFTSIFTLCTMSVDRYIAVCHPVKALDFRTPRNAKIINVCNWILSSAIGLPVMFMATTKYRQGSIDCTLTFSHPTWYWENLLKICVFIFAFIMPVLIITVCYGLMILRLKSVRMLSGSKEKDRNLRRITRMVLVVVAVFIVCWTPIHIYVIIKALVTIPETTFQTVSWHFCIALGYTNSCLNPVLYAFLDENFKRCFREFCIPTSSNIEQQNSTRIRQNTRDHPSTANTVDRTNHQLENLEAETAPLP

| Emax (DOR) [%] | DOR Calcium % DPDPE Inhibition (DOR; antagonist screen, vs EC60 of DPDPE) [%] | agonist efficacy at hACKR3 compared to CXCL-12 (ACKR3 [1]) | agonist efficacy at hACKR3 compared to CXCL-12 (ACKR3 [1]; listed as conolidine) | EC50 (ACKR3 [1]) [µM] | Emax (KOR) [%] | KOR Calcium % U69, 593 Inhibition (KOR) | ACKR3 delivery to the endosomes (ACKR3 [2]) | activation of MOR (β-arrestin-2 recruitment) (MOR) | Compound |
| --- | --- | --- | --- | --- | --- | --- | --- | --- | --- |
| 0 | 22 | full agonists | full agonist | 16.6 | 9 | 11% | delivery to the endosomes | not active | C/C=C1/CN2CC[C@H]1C(=O)c1[nH]c3ccccc3c1C2 [WW-1, (4E,5R)-4-ethylidene-1,4,5,7-tetrahydro-2,5-ethanoazocino[4,3-b]indol-6(3H)-one] |
| 6 | – | full agonists | – | 0.7 | 7 | 69** % | delivery to the endosomes | not active | C/C=C1/CN(CCCCC)CC[C@H]1C(=O)c1cc2ccccc2[nH]1 [WW-12, [(3E,4R)-3-ethylidene-1-pentylpiperidin-4-yl](1H-indol-2-yl)methanone] |
